# Where “and” joins values, the source holds several entries; their conditions need not be identical. Identical values can stand only once.
# Columns and labels:
# [1] = target: T1, human FXR-LBD (GST-FXR-LBD) (Homo sapiens, UniProt Q96RI1); assay: HTRF coactivator recruitment assay, antagonist mode (in the presence of 50 μM CDCA); assay type: biochemical; conditions: FXR antagonists (Figure S3B), replicates
# T1 construct: the human FXR-LBD (residues 234–472) was expressed as a GST fusion protein GST-FXR-LBD; made in house; host or cells: E. coli BL21(DE3)
# T1 sequence (Q96RI1 234-472 isoform Q96RI1-2): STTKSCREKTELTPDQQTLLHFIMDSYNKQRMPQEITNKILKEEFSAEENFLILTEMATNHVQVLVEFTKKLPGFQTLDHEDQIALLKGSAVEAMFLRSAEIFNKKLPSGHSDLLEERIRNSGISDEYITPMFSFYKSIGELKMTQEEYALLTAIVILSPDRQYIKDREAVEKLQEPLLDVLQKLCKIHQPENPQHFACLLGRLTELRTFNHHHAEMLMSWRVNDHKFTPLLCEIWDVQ
# [2] = target: T2, human FXR-LBD (6His-FXR-LBD) (Homo sapiens, UniProt Q96RI1); assay: FXR protein affinity pull-down assay; assay type: binding; conditions: 100 nM OCA
# T2 construct: human FXR (residues 243–472) was expressed and purified as an amino-terminal 6His fusion protein; made in house; host or cells: E. coli BL21(DE3)
# T2 sequence (Q96RI1 243-472 isoform Q96RI1-2): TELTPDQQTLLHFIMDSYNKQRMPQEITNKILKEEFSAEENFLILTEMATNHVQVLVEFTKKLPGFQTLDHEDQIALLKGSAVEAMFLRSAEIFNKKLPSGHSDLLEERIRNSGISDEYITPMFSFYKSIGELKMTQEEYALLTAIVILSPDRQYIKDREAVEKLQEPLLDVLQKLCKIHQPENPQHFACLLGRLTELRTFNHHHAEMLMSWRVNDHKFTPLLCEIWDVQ
# From the text: The ligand binding domain (LBD) of human FXR (residues 243–472) was expressed and purified as an amino-terminal 6His fusion protein based on the prokaryotic expression vector pACYCDuet-1, and the pACYCDuet-1-6His-FXR-LBD plasmid was synthesized by the Beijing Genomics Institute (BGI). In detail, the gene encoding human FXR-LBD was first synthesized by BGI and then subcloned into the pACYCDuet-1 vector predigested with BamHI/NotI (SE0054/SE0594; SibEnzyme) according to the manufacturer’s protocol. In brief, the vector was predigested at 37°C for 15 min, subsequently mixed with the synthesized FXR-LBD cDNA and seamless assembly mix (BGI), and incubated at 52°C for 30 min. Then, the new plasmid construct pACYCDuet-1-6His-FXR-LBD was transformed into Escherichia coli Top10 Competent Cells (BGI) by heat shock transformation (the mixture was incubated on ice for 30 min, then incubated at 42°C for 90 s and transferred to ice for 3 min). Finally, the pACYCDuet-1-6His-FXR-LBD plasmid were extracted from the positive clone, confirmed by sequencing and provided by BGI. The pACYCDuet-1-6His-FXR-LBD plasmid was transformed into E. coli BL21(DE3) cells (Tiangen Biotech) by heat shock transformation (the mixture was incubated on ice for 30 min, then incubated at 42°C for 90 s, and then transferred to ice for 3 min). The transformed E. coli was grown in lysogeny broth (LB) medium at 37°C to OD600 about 0.8–1.0, and then protein expression was induced with 0.5 mM isopropyl β-d-1-thiogalactopyranoside (IPTG) at 25°C for 5 h. The cells were harvested by centrifugation at 4°C and 5,000×g for 10 min, and the harvested cells were subjected to ultrasonic disruption (5 s on, 7 s off, 150 cycles) using an ultrasonic homogenizer (Ningbo Scientz Biotechnology) and centrifugation at 4°C and 12,000×g for 1 h. […] Finally, the purity of the 6His-FXR-LBD protein was detected by sodium dodecyl sulfate-polyacrylamide gel electrophoresis (SDS-PAGE) with 4%–15% Bis-tris SDS-PAGE gel (Sangon Biotech), which was stained with Coomassie brilliant blue R250 Protein Stain Reagent (Coolaber). […]
# FXR = test system: FXR; set-up: method as in PMID 12166927; conditions: read-out: EC50 (FXR agonist); cited from earlier work
# [3] = target: T1, human FXR-LBD (GST-FXR-LBD); assay: HTRF coactivator recruitment assay, agonist mode; assay type: biochemical; conditions: FXR agonists (Figure S3A), replicates
smiles,measurement,setting,value
"CC[C@H]1[C@@H](O)[C@@H]2[C@H](CC[C@]3(C)[C@@H]([C@H](C)CCC(=O)O)CC[C@@H]23)[C@@]2(C)CC[C@@H](O)C[C@@H]12 [OCA, obeticholic acid]",Ratio of 665nm/615nm,[1]; 0.0009 μM,[…]
same,Recovery of OCA pulled down by control protein,"[2]; boiled inactivated (denatured) FXR-LBD as negative control, n=3",4.69% and 4.09% and 4.45%
same,Recovery of OCA pulled down by the FXR-LBD protein,"[2]; purified 6His-FXR-LBD, n=3",91.28% and 89.1% and 85.93%

# — publication PMC12010937, “Evaluation of FXR Activity in Pollutants Identified in Sewage Sludge and Subsequent in Vitro and in Vivo Characterization of Metabolic Effects of Triphenyl Phosphate” (Environmental Health Perspectives, 2025)
